Results published in patent publication US8435981B2, “2-(heterocyclylbenzyl)pyridazinone derivatives” (Merck Patent Gesellschaft mit Beschränkter Haftung, priority 2006, dated 2013).

Tests used:
Met kinase [1] = molecular target: T1, Met kinase (Homo sapiens, UniProt P08581); assay: Met kinase inhibition, enzyme assay (flashplate method); assay type: biochemical; parameters: 6His (N); purchased Upstate 14-526; host or cells: Sf21 insect cells (S. frugiperda), baculovirus
Description: Flashplate Method (Met Kinase)
The test plates used are 96-well Flashplate® microtitre plates from Perkin Elmer (Cat. No. SMP200). The components of the kinase reaction described below are pipetted into the assay plate. The Met kinase and the substrate poly Ala-Glu-Lys-Tyr, (pAGLT, 6:2:5:1), are incubated for 3 hrs at room temperature with radioactively labelled ^33P-ATP in the presence and absence of test substances in a total volume of 100 μl. The reaction is terminated using 150 μl of a 60 mM EDTA solution. After incubation for a further 30 min at room temperature, the supernatants are filtered off with suction, and the wells are washed three times with 200 μl of 0.9% NaCl solution each time. The measurement of the bound radioactivity is carried out by means of a scintillation measuring instrument (Topcount NXT, Perkin-Elmer).
The full value used is the inhibitor-free kinase reaction. This should be approximately in the range 6000-9000 cpm. The pharmacological zero value used is staurosporin in a final concentration of 0.1 mM. The inhibitory values (IC50) are determined using the RS1_MTS program.
Kinase reaction conditions per well:
10 μl of substance to be tested in assay buffer with 10% of DMSO
10 μl of ATP (final concentration 1 μM cold, 0.35 μCi of ^33P-ATP)
50 μl of Met kinase/substrate mixture in assay buffer;
Target sequence in this assay (P08581 974-1390 limits assumed): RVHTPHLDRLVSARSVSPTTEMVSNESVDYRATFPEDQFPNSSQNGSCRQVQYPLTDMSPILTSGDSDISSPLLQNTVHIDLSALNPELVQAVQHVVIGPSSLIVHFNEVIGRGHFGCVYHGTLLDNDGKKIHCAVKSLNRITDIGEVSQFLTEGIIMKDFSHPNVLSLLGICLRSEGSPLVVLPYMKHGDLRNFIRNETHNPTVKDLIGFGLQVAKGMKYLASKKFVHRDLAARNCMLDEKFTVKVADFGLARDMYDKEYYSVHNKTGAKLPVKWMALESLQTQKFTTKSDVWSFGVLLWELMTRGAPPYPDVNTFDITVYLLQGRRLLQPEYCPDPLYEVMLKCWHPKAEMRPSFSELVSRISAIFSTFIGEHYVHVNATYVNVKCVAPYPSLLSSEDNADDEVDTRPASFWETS

Met kinase [2] = molecular target: T1, Met kinase; assay: Met kinase inhibition, cell assay; assay type: cell-based
Target sequence in this assay (P08581 25-1390): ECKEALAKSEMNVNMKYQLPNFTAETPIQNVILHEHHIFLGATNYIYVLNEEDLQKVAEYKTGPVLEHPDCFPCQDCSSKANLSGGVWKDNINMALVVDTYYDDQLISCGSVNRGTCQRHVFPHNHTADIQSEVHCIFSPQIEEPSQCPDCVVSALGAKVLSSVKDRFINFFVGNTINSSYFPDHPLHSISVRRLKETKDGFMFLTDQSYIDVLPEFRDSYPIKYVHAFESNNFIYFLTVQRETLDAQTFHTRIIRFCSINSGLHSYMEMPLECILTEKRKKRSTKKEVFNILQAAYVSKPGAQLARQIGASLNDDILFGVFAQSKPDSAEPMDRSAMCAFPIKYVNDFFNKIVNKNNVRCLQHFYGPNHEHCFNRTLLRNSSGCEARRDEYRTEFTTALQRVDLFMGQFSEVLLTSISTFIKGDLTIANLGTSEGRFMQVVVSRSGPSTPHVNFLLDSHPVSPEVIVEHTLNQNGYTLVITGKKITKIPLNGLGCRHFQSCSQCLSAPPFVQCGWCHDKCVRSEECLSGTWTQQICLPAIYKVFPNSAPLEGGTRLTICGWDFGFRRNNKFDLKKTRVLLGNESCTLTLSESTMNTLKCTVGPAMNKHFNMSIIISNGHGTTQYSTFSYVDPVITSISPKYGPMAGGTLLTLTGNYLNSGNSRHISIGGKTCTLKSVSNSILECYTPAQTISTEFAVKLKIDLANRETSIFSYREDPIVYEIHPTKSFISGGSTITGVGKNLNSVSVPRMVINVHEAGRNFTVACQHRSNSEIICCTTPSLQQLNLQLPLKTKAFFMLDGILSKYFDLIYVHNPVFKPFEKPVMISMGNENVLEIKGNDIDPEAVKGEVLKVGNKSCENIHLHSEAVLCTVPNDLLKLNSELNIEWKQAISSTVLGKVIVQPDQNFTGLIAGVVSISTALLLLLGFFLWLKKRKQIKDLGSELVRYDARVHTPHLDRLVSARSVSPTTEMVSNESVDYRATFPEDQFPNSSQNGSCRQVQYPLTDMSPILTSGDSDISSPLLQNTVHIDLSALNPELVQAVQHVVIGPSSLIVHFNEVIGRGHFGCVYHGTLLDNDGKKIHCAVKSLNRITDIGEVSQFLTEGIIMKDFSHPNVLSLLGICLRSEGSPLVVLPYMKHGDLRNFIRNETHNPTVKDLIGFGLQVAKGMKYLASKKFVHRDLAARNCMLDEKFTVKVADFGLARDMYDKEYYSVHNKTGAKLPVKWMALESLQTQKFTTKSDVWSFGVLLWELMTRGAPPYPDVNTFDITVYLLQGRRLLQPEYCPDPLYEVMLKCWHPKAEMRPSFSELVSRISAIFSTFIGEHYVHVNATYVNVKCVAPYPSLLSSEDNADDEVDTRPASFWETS

SMILES	IC50 (Met kinase [1])	IC50 (Met kinase [2])
Cc1nc(-c2cccc(Cn3nc(-c4cc(F)cc(F)c4)ccc3=O)c2)no1 [Compound A1, 6-(3,5-difluorophenyl)-2-[3-(5-methyl-1,2,4-oxadiazol-3-yl)benzyl]-2H-pyridazin-3-one]	10 to 1000 nM	
CCNc1nc(-c2cccc(Cn3nc(-c4cc(F)cc(F)c4)ccc3=O)c2)no1 [Compound A11, 6-(3,5-difluorophenyl)-2-[3-(5-ethylamino-1,2,4-oxadiazol-3-yl)benzyl]-2H-pyridazin-3-one]	10 to 1000 nM	
CN(C)CCCNc1nc(-c2cccc(Cn3nc(-c4cc(F)cc(F)c4)ccc3=O)c2)no1 [Compound A12, 6-(3,5-difluorophenyl)-2-{3-[5-(3-dimethylaminopropylamino)-1,2,4-oxadiazol-3-yl]benzyl}-2H-pyridazin-3-one]	10 to 1000 nM	
CN1CCN(c2nc(-c3cccc(Cn4nc(-c5cc(F)cc(F)c5)ccc4=O)c3)no2)CC1 [Compound A20, 6-(3,5-difluorophenyl)-2-{3-[5-(4-methylpiperazin-1-yl)-1,2,4-oxadiazol-3-yl]benzyl}-2H-pyridazin-3-one]	10 to 1000 nM	
CN1CCN(C(=O)c2nc(-c3cccc(Cn4nc(-c5cc(F)cc(F)c5)ccc4=O)c3)no2)CC1 [Compound A21, 6-(3,5-difluorophenyl)-2-{3-[5-(4-methylpiperazine-1-carbonyl)-1,2,4-oxadiazol-3-yl]benzyl}-2H-pyridazin-3-one]	10 to 1000 nM	
O=c1ccc(-c2cc(F)cc(F)c2)nn1Cc1cccc(-c2noc(NCCN3CCOCC3)n2)c1 [Compound A22]	10 to 1000 nM	
Cc1cnc(-c2cccc(Cn3nc(-c4cccc(Cl)c4)ccc3=O)c2)o1 [Compound A33]	10 to 1000 nM	
CN1CCC(N(C)c2nc(-c3cccc(Cn4nc(-c5cc(F)cc(F)c5)ccc4=O)c3)no2)CC1 [Compound A46, 6-(3,5-difluorophenyl)-2-(3-{5-[methyl-(1-methylpiperidin-4-yl)-amino]-1,2,4-oxadiazol-3-yl}benzyl)-2H-pyridazin-3-one]	10 to 1000 nM	
CCN1CCN(c2nc(-c3cccc(Cn4nc(-c5cc(F)cc(F)c5)ccc4=O)c3)no2)CC1 [Compound A48]	10 to 1000 nM	
COCCN1CCN(c2nc(-c3cccc(Cn4nc(-c5cc(F)cc(F)c5)ccc4=O)c3)no2)CC1 [Compound A50, 6-(3,5-Difluorophenyl)-2-(3-{5-[4-(2-methoxyethyl)-piperazin-1-yl]-1,2,4-oxadiazol-3-yl}benzyl)-2H-pyridazin-3-one]	10 to 1000 nM	
CN1CCC(c2cnc(-c3cccc(Cn4nc(-c5cc(F)cc(F)c5)ccc4=O)c3)o2)CC1 [Compound A88, 6-(3,5-difluorophenyl)-2-{3-[5-(1-methylpiperidin-4-yl)oxazol-2-yl]benzyl}-2H-pyridazin-3-one]	10 to 1000 nM	
O=c1ccc(-c2cc(F)cc(F)c2)nn1Cc1cccc(-c2ncc(C3CCNCC3)s2)c1 [Compound A91, 6-(3,5-difluorophenyl)-2-[3-(5-piperidin-4-ylthiazol-2-yl)benzyl]-2H-pyridazin-3-one]	10 to 1000 nM	
O=c1ccc(-c2cc(F)cc(F)c2)nn1Cc1cccc(-c2noc(N3CCN(CCO)CC3)n2)c1 [Compound A111, 6-(3,5-difluorophenyl)-2-(3-{5-[4-(2-hydroxyethyl)piperazin-1-yl]-1,2,4-oxadiazol-3-yl}benzyl)-2H-pyridazin-3-one]		10 to 1000 nM
CCOCCN1CCN(c2nc(-c3cccc(Cn4nc(-c5cc(F)cc(F)c5)ccc4=O)c3)no2)CC1 [Compound A123, 6-(3,5-Difluorophenyl)-2-(3-{5-[4-(2-ethoxyethyl)-piperazin-1-yl]-1,2,4-oxadiazol-3-yl}benzyl)-2H-pyridazin-3-one]		10 to 1000 nM
COCCCN1CCN(c2nc(-c3cccc(Cn4nc(-c5cc(F)cc(F)c5)ccc4=O)c3)no2)CC1 [Compound A124, 6-(3,5-Difluorophenyl)-2-(3-{5-[4-(3-methoxypropyl)-piperazin-1-yl]-1,2,4-oxadiazol-3-yl}benzyl)-2H-pyridazin-3-one]		10 to 1000 nM
